Molecules are shown by their SMILES. Read-outs that look alike come from different tables or passages of the source. Numbered stars: 1 amine (or outer) side, 2 acyl side, 3 side chain; on linkers, the order of the positions; unused ones are H or OH. Square brackets hold non-standard residues; d marks the D form. Peptide text beside a SMILES is read from it. * marks the point of attachment. 5FAM = O=C1OC2(c3ccc(O)cc3Oc3cc(O)ccc32)c2ccc(C(=O)*)cc21; NHCH2C6H4(4-CH2CONH2) = NC(=O)Cc1ccc(CN*)cc1; X1 = O=C(Cc1ccc(CN[*:1])cc1)[*:2]

This assay has as its target T1, IL-6R (Homo sapiens, UniProt P08887).
T1 construct: purchased Creative Biomart IL6R-584H
T1 sequence (P08887 20-355 limits assumed): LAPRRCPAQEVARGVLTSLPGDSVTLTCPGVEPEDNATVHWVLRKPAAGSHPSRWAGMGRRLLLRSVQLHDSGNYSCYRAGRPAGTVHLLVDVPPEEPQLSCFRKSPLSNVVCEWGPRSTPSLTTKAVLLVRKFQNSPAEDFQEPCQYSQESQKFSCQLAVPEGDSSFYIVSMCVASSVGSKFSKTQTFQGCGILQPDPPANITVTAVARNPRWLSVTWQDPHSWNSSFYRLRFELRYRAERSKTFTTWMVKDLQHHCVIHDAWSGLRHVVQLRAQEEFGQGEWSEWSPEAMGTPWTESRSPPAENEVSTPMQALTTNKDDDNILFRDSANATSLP
In words: MST binding affinity of resynthesized NNP hits to IL-6R. The procedure: Hit binding affinity to various targets were determined using Microscale Thermophoresis (MST). MST experiments were performed on a Monolith NT.115pico (NanoTemper Technologies GmbH, Munich, Germany). Measurements were performed at room temperature, in triplicate with incubation periods of 15, 30 and 45 minutes. […] Targets were labeled using Nanotemper Monolith 2nd Generation Protein Labeling Kits. RED-MALEIMIDE (Maleimide-647-dye) labeling kit was used for K-Ras and RED-NHS (NHS-647-dye) labeling kit was used for IL-6, IL-6R, TNFα and ASGPR. The buffer for the ASGPR contained 20 mM HEPES pH 7.4, 150 mM NaCl, 10 mM MgCl2, 2 mM CaCl2, 0.05% Pluronic F-127, and 1 mM DTT; for IL-6 contained 20 mM HEPES pH 7.4, 150 mM KCl, 10 mM MgCl2, and 0.1% Pluronic F-127; for the soluble IL-6 receptor 20 mM HEPES pH 7.4, 150 mM NaCl, 10 mM MgCl2, and 0.05% Tween-20; for K-Ras 20 mM HEPES pH 7.4, 150 mM NaCl, 10 mM MgCl2, 0.05% Tween-20 and 1 mM DTT; for TNFα 10 mM HEPES pH 7.4, 150 mM NaCl, 10 mM MgCl2, 0.05% Polysorbate-20. Triplicate data was analyzed using MO.AffinityAnalysis software (NanoTemper Technologies GmbH).

Where [1] appears, read: read-out: MST (microscale thermophoresis) KD (nM) [95% conf. int], IL-6R, ester versus amide amino acid-PAM bond polymers, library NNP2.

On to `CC(C)C[C@H](NC(=O)[C@@H](CCCNC(=N)N)NC(=O)[C@@H](C)NC(=O)Cc1ccc(CNC(=O)[C@H](Cc2ccccc2)NC(=O)[C@@H](CCC(=O)O)NC(=O)[C@H]2CCCN2C(=O)Cc2ccc(CNC(=O)[C@H](Cc3ccccc3)NC(=O)[C@@H](CCCCN)NC(=O)[C@@H](C)NC(=O)Cc3ccc(CNC(=O)[C@H](CC(C)C)NC(=O)[C@@H](CCCNC(=N)N)NC(=O)[C@@H](Cc4c[nH]c5ccccc45)NC(=O)Cc4ccc(CNC(=O)[C@H](C)NC(=O)[C@@H](CCCCN)NC(=O)[C@H]5CCCN5C(=O)Cc5ccc(CNC(=O)[C@@H](NC(=O)[C@@H](CC(N)=O)NC(=O)[C@H]6CCCN6C(=O)Cc6ccc(CNC(=O)[C@H](Cc7ccccc7)NC(=O)[C@@H](Cc7c[nH]c8ccccc78)NC(=O)[C@@H](CCCNC(=N)N)NC(=O)c7ccc8c(c7)C(=O)OC87c8ccc(O)cc8Oc8cc(O)ccc87)cc6)C(C)C)cc5)cc4)cc3)cc2)cc1)C(=O)NCc1ccc(CC(=O)N[C@H](Cc2c[nH]c3ccccc23)C(=O)N[C@H](CCCCN)C(=O)N[C@@H](CC(C)C)C(=O)NCc2ccc(CC(=O)N[C@H](Cc3ccccc3)C(=O)N[C@H](CCCCN)C(=O)NCC(=O)NCc3ccc(CC(N)=O)cc3)cc2)cc1` [IL6R-87-6, Fluorescein-(D)Arg-(D)Trp-(L)Phe-PAM-(D)Pro-(D)Asn-(L)Val-PAM-(D)Pro-(D)Lys-(L)Ala-PAM-(D)Trp-(D)Arg-(L)Leu-PAM-(D)Ala-(D)Lys-(L)Phe-PAM-(D)Pro-(D)Glu-(L)Phe-PAM-(D)Ala-(D)Arg- (L)Leu-PAM-(D)Trp-(D)Lys-(L)Leu-PAM-(D)Phe-(D)Lys-Gly-PAM] (5FAM-[dR][dW]F[X1][dP][dN]V[X1][dP][dK]A[X1][dW][dR]L[X1][dA][dK]F[X1][dP][dE]F[X1][dA][dR]L[X1][dW][dK]L[X1][dF][dK]G-{NHCH2C6H4(4-CH2CONH2)}), for which the Kd (MST, NNP2 library hit, target SIL-6R, one-site binding model) was 3.3 nM.

Regarding `CC(C)C[C@H](NC(=O)[C@@H](CCCNC(=N)N)NC(=O)[C@@H](C)NC(=O)Cc1ccc(CNC(=O)[C@H](Cc2ccccc2)NC(=O)[C@@H](CCCNC(=N)N)NC(=O)[C@@H](CC(N)=O)NC(=O)Cc2ccc(CNC(=O)[C@H](Cc3ccccc3)NC(=O)[C@@H](CCCCN)NC(=O)[C@@H](C)NC(=O)Cc3ccc(CNC(=O)[C@H](CC(C)C)NC(=O)[C@@H](CCC(=O)O)NC(=O)[C@@H](CCCCN)NC(=O)Cc4ccc(CNC(=O)[C@@H](NC(=O)[C@@H](CCC(=O)O)NC(=O)[C@@H](Cc5ccccc5)NC(=O)Cc5ccc(CNC(=O)[C@H](CC(C)C)NC(=O)[C@@H](CCCNC(=N)N)NC(=O)[C@@H](CC(C)C)NC(=O)Cc6ccc(CNC(=O)[C@H](Cc7ccccc7)NC(=O)[C@@H](Cc7c[nH]c8ccccc78)NC(=O)[C@@H](CCCNC(=N)N)NC(=O)c7ccc8c(c7)C(=O)OC87c8ccc(O)cc8Oc8cc(O)ccc87)cc6)cc5)C(C)C)cc4)cc3)cc2)cc1)C(=O)NCc1ccc(CC(=O)N[C@H](Cc2c[nH]c3ccccc23)C(=O)N[C@H](CCCCN)C(=O)N[C@@H](CC(C)C)C(=O)NCc2ccc(CC(=O)N[C@H](C)C(=O)N[C@@H](C(=O)N[C@@H](CC(C)C)C(=O)NCc3ccc(CC(N)=O)cc3)C(C)C)cc2)cc1` [IL6R-87-10, Fluorescein-(D)Arg-(D)Trp-(L)Phe-PAM-(D)Leu-(D)Arg-(L)Leu-PAM-(D)Phe-(D)Glu-(L)Val-PAM-(D)Lys-(D)Glu-(L)Leu-PAM-(D)Ala-(D)Lys-(L)Phe-PAM-(D)Asn-(D)Arg-(L)Phe-PAM-(D)Ala-(D)Arg- (L)Leu-PAM-(D)Trp-(D)Lys-(L)Leu-PAM-(D)Ala-(D)Val-(L)Leu-PAM] (5FAM-[dR][dW]F[X1][dL][dR]L[X1][dF][dE]V[X1][dK][dE]L[X1][dA][dK]F[X1][dN][dR]F[X1][dA][dR]L[X1][dW][dK]L[X1][dA][dV]L-{NHCH2C6H4(4-CH2CONH2)}), the Kd (IL-6R, ester versus amide amino acid-PAM bond polymers, library NNP2) turned out to be 20 nM.

With `CC(C)C[C@H](NC(=O)[C@@H](CCCNC(=N)N)NC(=O)[C@@H](C)NC(=O)Cc1ccc(COC(=O)[C@H](CC(C)C)NC(=O)[C@@H](CCCNC(=N)N)NC(=O)[C@@H](CCC(=O)O)NC(=O)Cc2ccc(COC(=O)[C@H](C)NC(=O)[C@@H](CCCCN)NC(=O)[C@@H](Cc3ccc(O)cc3)NC(=O)Cc3ccc(COC(=O)[C@H](C)NC(=O)[C@@H](CCCNC(=N)N)NC(=O)[C@@H](Cc4ccccc4)NC(=O)Cc4ccc(COC(=O)[C@H](Cc5ccccc5)NC(=O)[C@@H](CO)NC(=O)[C@@H](CCCNC(=N)N)NC(=O)Cc5ccc(COC(=O)[C@@H](NC(=O)[C@@H](CO)NC(=O)[C@@H](Cc6ccc(O)cc6)NC(=O)Cc6ccc(COC(=O)[C@H](Cc7ccccc7)NC(=O)[C@H](NC(=O)[C@@H](CC(N)=O)NC(=O)c7ccc8c(c7)C(=O)OC87c8ccc(O)cc8Oc8cc(O)ccc87)C(C)C)cc6)C(C)C)cc5)cc4)cc3)cc2)cc1)C(=O)OCc1ccc(CC(=O)N2CCC[C@@H]2C(=O)N[C@H](CCCNC(=N)N)C(=O)N[C@@H](C)C(=O)OCc2ccc(CC(=O)N[C@H](Cc3ccccc3)C(=O)N[C@H](CCCCN)C(=O)NCC(=O)OCc3ccc(CC(N)=O)cc3)cc2)cc1` [IL6R-93-12], the dissociation constant Kd under setting [1] amounted to 3.7 nM.

Take `CC(C)C[C@H](NC(=O)[C@@H](CCCNC(=N)N)NC(=O)[C@@H](C)NC(=O)Cc1ccc(COC(=O)[C@H](Cc2ccccc2)NC(=O)[C@@H](CCCNC(=N)N)NC(=O)[C@@H](CC(N)=O)NC(=O)Cc2ccc(COC(=O)[C@H](Cc3ccccc3)NC(=O)[C@@H](CCCCN)NC(=O)[C@@H](C)NC(=O)Cc3ccc(COC(=O)[C@H](CC(C)C)NC(=O)[C@@H](CCC(=O)O)NC(=O)[C@@H](CCCCN)NC(=O)Cc4ccc(COC(=O)[C@@H](NC(=O)[C@@H](CCC(=O)O)NC(=O)[C@@H](Cc5ccccc5)NC(=O)Cc5ccc(COC(=O)[C@H](CC(C)C)NC(=O)[C@@H](CCCNC(=N)N)NC(=O)[C@@H](CC(C)C)NC(=O)Cc6ccc(COC(=O)[C@H](Cc7ccccc7)NC(=O)[C@@H](Cc7c[nH]c8ccccc78)NC(=O)[C@@H](CCCNC(=N)N)NC(=O)c7ccc8c(c7)C(=O)OC87c8ccc(O)cc8Oc8cc(O)ccc87)cc6)cc5)C(C)C)cc4)cc3)cc2)cc1)C(=O)OCc1ccc(CC(=O)N[C@H](Cc2c[nH]c3ccccc23)C(=O)N[C@H](CCCCN)C(=O)N[C@@H](CC(C)C)C(=O)OCc2ccc(CC(=O)N[C@H](C)C(=O)N[C@@H](C(=O)N[C@@H](CC(C)C)C(=O)OCc3ccc(CC(N)=O)cc3)C(C)C)cc2)cc1` [IL6R-93-13]: the Kd under setting [1] was 130 nM.

Usually Kd stands for the free concentration of one partner at which half of the binding sites on the other are occupied at equilibrium, for simple one-to-one binding.

The values are drawn from patent US20230393140A1, “BINDING ASSAYS INVOLVING A PLURALITY OF SYNTHETIC COMPOUNDS, TARGETS, AND COUNTER TARGETS” (SRI International, priority 2020, published 2023).
